The nature of assay [1]: Odour threshold and odour value determination. To be noted: definition per Huber, Seifen-Oele-Fette-Wachse 110 (1984) 448-451. Here is the method: Die Verbindungen der Formel I eignen sich aufgrund ihrer natürlichen Geruchsnoten insbesondere zur Modifizierung von bekannten Kompositionen. Hervorgehoben werden soll insbesondere ihre ausserordentliche Geruchsstärke: Der Geruchsschwellenwert beträgt 0,29 bzw. 0,57 ng/l, der Geruchswert 2983 bzw. 2139. Bezüglich Definition von Geruchswert und Geruchsschwellenwert siehe z.B. Ulrich A. Huber, Seifen - -Oele - Fette - Wachse 110, Nr. 15 (1984) 448-451.

A short description of assay [2]: Odour description (olfactory evaluation). The following applies: odour note in words.

Molecules are shown by their SMILES.

Consider `CCc1cc2c(cc1[N+](=O)[O-])C(C)(C)CCC2(C)C` [Beispiel 1, 6-Nitro-7-äthyl-1,1,4,4-tetramethyl-1,2,3,4-tetrahydronaphthalin], for which, in assay [1], the Geruchsschwellenwert is 0,57 ng/l. Also, the Geruch entry in assay [2] is recorded as “Moschus-artig, süss, pudrig”.

`CCc1cc2c(cc1[N+](=O)[O-])C(C)(C)C(C)C2(C)C` (stereo not shown) [Beispiel 2, 5-Nitro-6-äthyl-1,1,2,3,3-pentamethylindan]: the Geruchsschwellenwert in assay [1] is 0,29 ng/l. The Geruch entry in assay [2] is listed as “moschus-artig”.
